What was measured:
[1] = tested on: 22Rv1-Enz^R cells; test: 22Rv1-Enz^R cell proliferation (cell count, Experimental Example 3); format: cell-based, human; conditions: 10 μM, 4 days, MG-132 (5 μM) pretreatment
Protocol: The human prostate cancer cell line, 22Rv1 has been reported to express a high level of AR-V7. Thus, 22Rv1 was seeded at 50,000 cells/well on a 24-well plate in quadruplicates and treated with test compound in concentrations ranging up to 20 μM for four days. Standard culture media was RPMI-1640 supplemented with 10% fetal bovine serum. The test compound initially was dissolved in DMSO at 50 mM. This stock solution was then diluted as needed for the indicated concentrations. At the end of the four-day period, cells were harvested using 1% trypsin and counted using an automated cell counter.
Cell Culture. Human CaP cell lines, LNCaP, 22Rv1, VCaP, PC3, and DU145 are obtained from the American Type Culture Collection (ATCC) and maintained in the standard culture media: RPMI-1640 supplemented with 10% fetal bovine serum (FBS). LNCaP, 22Rv1, and VCaP are androgen-responsive cell lines, while PC3 and DU145 are not. To establish SAT resistant CaP cell lines, LNCaP, 22Rv1, and VCaP are treated continuously with 10-50 μM abiraterone, apalutamide, darolutamide, or enzalutamide. After 3-6 months, stable cell lines are established and designated as LNCaP-Abi^R, LNCaP-Apa^R, LNCaP-Daro^R, LNCaP-Enz^R, VCaP-Abi^R, VCaP-Apa^R, VCaP-Daro^R, VCaP-Enz^R, 22Rv1-Abi^R, 22Rv1-Apa^R, 22Rv1-Daro^R and 22Rv1-Enz^R. Unless otherwise specified, the standard culture media for these SAT-resistant cell lines included 10 μM of their respective SAT. For the proteasome inhibitor study, the inhibitors MG132 and Epoxomicin are used. The E3 ligase inhibitors Heclin, Nutlin 3a, Thalidomide, and VH298 are used. Cell lines obtained from ATCC are confirmed by checking their morphology using optical microscopy, establishing baselines for cell proliferation, verifying species of origin using isoenzymology, and characterizing the cell's DNA fingerprint using short tandem repeat (STR) profiling. Mycoplasma contamination is also assessed using a PCR based detection system.

[2] = tested on: 22Rv1; test: 22Rv1 cell proliferation assay (Experimental Example 1, cell count); format: cell-based; conditions: Homo sapiens, 22Rv1, read-out: 22Rv1 cell count decrease at 10 μM for 48 hours; 10 μM (method: four days); read-out: 22Rv1 cell count decrease at 10 μM
Protocol: The human prostate cancer cell line, 22Rv1 has been reported to express a high level of AR-V7. […] Standard culture media was RPMI-1640 supplemented with 10% fetal bovine serum. The test compound initially was dissolved in DMSO at 50 mM. This stock solution was then diluted as needed for the indicated concentrations. […]
In the Table: (+)—the cell count decreased between 0 and 20%; (++)—the cell count decreased […]; (+++)—the cell count decreased by more than 50%.

[3] = tested on: 22Rv1 cells; test: Apoptosis assay (annexin-V, TUNEL) in 22Rv1; format: cell-based, human; conditions: 22Rv1, 1 μM, 0 to 48 hours; starts approximately three hours after treatment, increases through 48 hours
Protocol: Apoptosis Assay. An apoptosis assay is carried out using the Thermo Fisher ApoDETECT Annexin V-FITC kit following the protocol recommended by the vendor. […] Then, fixed cells are incubated with Annexin V-FITC in PBS solution for 30 minutes at room temperature. After washing three times with PBS, cells are treated with 300 nM DAPI in PBS for 5 minutes at room temperature. Finally, after washing three times with PBS, mounting solution is added and the cells are visualized using immunofluorescence microscopy. Next, a TUNEL assay is performed using Promega DeadEnd Fluorometric TUNEL system. After treatment with Test Compound and fixation as described above in the Annexin-V experiment, 100 μl of equilibration buffer is incubated for 10 min. Then, 50 μl of TdT reaction mix is added and incubated for 60 min at 37° C. in a humidified chamber. Finally, stop solution is added and samples are mounted on slides using mounting medium. To assess non-specific cytotoxicity, an LDH assay kit is used.

SMILES | reduction of 22Rv1-Enz^R cell counts after pretreatment with MG-132 [1] | inhibition at 10 µM [2] | apoptosis, annexin-V assay [3]
Cl.NCCCCCCCCCCNc1cccc2c1C(=O)N(C1CCC(=O)NC1=O)C2=O (centres unmarked) [Example 34, 4-((10-aminodecyl)amino)-2-(2,6-dioxopiperidin-3-yl)isoindoline-1,3-dione hydrochloride] | substantially blocked | < 50% | 
CN[C@@H](C)C(=O)N[C@H](C(=O)N1Cc2cc(OCCOCCOc3c(-c4csc(N5CCOCC5)n4)ccc(F)c3F)ccc2C[C@H]1C(=O)N[C@@H]1CCCc2ccccc21)C(C)(C)C.Cl.Cl [Example 35, (S)-7-(2-(2-(2,3-difluoro-6-(2-morpholinothiazol-4-yl)phenoxy)ethoxy)ethoxy)-2-((S)-3,3-dimethyl-2-((S)-2-(methylamino)propanamido)butanoyl)-N-((R)-1,2,3,4-tetrahydronaphthalen-1-yl)-1,2,3,4-tetrahydroisoquinoline-3-carboxamide dihydrochloride] | substantially blocked | > 50% | 
O=C(O)CCCCNC(=O)COc1c(-c2csc(N3CCOCC3)n2)ccc(F)c1F [Example C1, reference compound] |  |  | no change in apoptosis
